Reference: US12037324B2, “Biarylmethyl heterocycles” (Université de Montréal, priority 2016, dated 2024)

Key:
Format in all cases: cell-based
AGTR1 [1] = biological target: T1, AGTR1 (Homo sapiens, UniProt P30556); assay: DiscoveRx β-arrestin2 recruitment assay (enzyme complementation, Pathunter CHO-K1 AGTR1 β-arrestin cell line); details: DiscoveRx β-arrestin2 recruitment; for DiscoveRx β-arrestin2 Ymax (%): maximal response
T1 construct: host or cells: Pathunter CHO-K1 AGTR1 β-arrestin cell line (CHO-K1)
T1 sequence (P30556 1-359): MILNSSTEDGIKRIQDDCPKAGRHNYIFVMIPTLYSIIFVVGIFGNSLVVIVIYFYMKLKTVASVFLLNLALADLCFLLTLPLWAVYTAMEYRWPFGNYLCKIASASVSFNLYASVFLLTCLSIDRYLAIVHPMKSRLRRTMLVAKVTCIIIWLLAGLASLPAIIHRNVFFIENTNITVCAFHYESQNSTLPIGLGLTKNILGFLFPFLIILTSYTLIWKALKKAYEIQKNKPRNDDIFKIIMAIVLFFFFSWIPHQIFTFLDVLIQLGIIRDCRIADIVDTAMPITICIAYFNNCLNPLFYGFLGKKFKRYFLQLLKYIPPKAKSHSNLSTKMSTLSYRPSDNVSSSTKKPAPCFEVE
How it was run: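 Chemiluminescent enzyme-complementation read-out of β-arrestin2 recruitment to AGTR1 in engineered CHO-K1 cells after 90 min compound exposure at 37° C. Values are 4-parameter logistic EC50s in agonist mode, IC50s in antagonist mode, with efficacy relative to the maximal All response.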

AGTR1 [2] = biological target: T1, AGTR1; assay: DiscoveRx IP1 accumulation assay (HTRF), agonist mode, Pathunter CHO-K1 AGTR1 β-arrestin cell line; details: for EC50: read-out: IP-1 EC50
How it was run: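 Agonist mode in CHO-K1 AGTR1 β-arrestin cells plated 14-16 h before; compounds at varying concentrations for 90 min at 37° C, IP1 accumulation read by HTRF (D2-conjugate and anti-IP1 cryptate, 20 min room temperature). EC50 from 4-parameter logistic fit; activity given as percentage of maximal AII effect.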

hAT1R = biological target: T2, hAT1R (Homo sapiens, UniProt P30556); assay: BRET β-arrestin2 biosensor assay, higher receptor expression (hAT1R 5 ng/well), HEK293 cells; details: for EC50: High AT1R Expression
T2 sequence (P30556 1-359): T1 sequence (P30556 1-359)

| Structure (SMILES) | EC50 (AGTR1 [1]) [nM] | DiscoveRx β-arrestin2 Ymax (%) (AGTR1 [1]) | IP-1 Ymax (%) (AGTR1 [2]) | EC50 (AGTR1 [2]) [nM] | BRET β-Arrestin2 High AT1R Expression Ymax (%) (hAT1R) | EC50 (hAT1R) [nM] |
| --- | --- | --- | --- | --- | --- | --- |
| CCc1nc2c(C)cc(C)nc2n1Cc1ccc(-c2cc(N3CCCC(C)(C)C3)ccc2-c2nn[nH]n2)cc1 [Example 98, 3-((5′-(3,3-dimethylpiperidin-1-yl)-2′-(2H-tetrazol-5-yl)-[1,1′-biphenyl]-4-yl)methyl)-2-ethyl-5,7-dimethyl-3H-imidazo[4,5-b]pyridine] | 18.8 | 72.9 | 6.6 | 26.7 | 86.6 | 20.3 |
| CCCCC1=NC2(CCCC2)C(=O)N1Cc1ccc(-c2cc(Nc3ccccc3)ccc2-c2nn[nH]n2)cc1 [Example 99, 2-butyl-3-((5′-(phenylamino)-2′-(2H-tetrazol-5-yl)-[1,1′-biphenyl]-4-yl)methyl)-1,3-diazaspiro[4.4]non-1-en-4-one] | 32.4 | 6.3 | – | > 100000 | 9.6 | 144 |
| CCCCC1=NC2(CCCC2)C(=O)N1Cc1ccc(-c2cc(N3CCC(C)CC3)ccc2-c2nn[nH]n2)cc1 [Example 100] | 28.8 | 12.7 | 6.1 | 49.9 | 19.4 | 155 |
| CCCCC1=NC2(CCCC2)C(=O)N1Cc1ccc(-c2cc(N3CCCC(C)(C)C3)ccc2-c2nn[nH]n2)cc1 [Example 102] | 44.4 | 41.0 | 3.8 | 723 | 71.6 | 99.6 |
| CCCCC1=NC2(CCCC2)C(=O)N1Cc1ccc(-c2cc(N3CCC[C@H](C)C3)ccc2-c2nn[nH]n2)cc1 [Example 104] | 116 | 9.1 | – | > 100000 | 23.4 | 346 |
| CCCCC1=NC2(CCCC2)C(=O)N1Cc1ccc(-c2cc(-n3ccc4ccccc43)ccc2-c2nn[nH]n2)cc1 [Example 105] | 16 | 31.0 | – | > 100000 | 58.0 | 28.9 |
| CCCCC1=NC2(CCCC2)C(=O)N1Cc1ccc(-c2cc(N3CCC[C@@H](C)C3)ccc2-c2nn[nH]n2)cc1 [Example 106] | 17.6 | 6.3 | – | > 100000 | 12.4 | 138 |
| CCCCC1=NC2(CCCC2)C(=O)N1Cc1ccc(-c2cc(N3CC(C)(C)c4ccccc43)ccc2-c2nn[nH]n2)cc1 [Example 107] | 26.7 | 24.6 | – | > 100000 | 54.3 | 226 |
| CCCCC1=NC2(CCCC2)C(=O)N1Cc1ccc(-c2cc(-n3ccc4ccc(F)cc43)ccc2-c2nn[nH]n2)cc1 [Example 109] | 19.6 | 17.4 | – | > 100000 | 59.9 | 73.1 |
| CCCCC1=NC2(CCCC2)C(=O)N1Cc1ccc(-c2cc(N3CCCC(F)(F)C3)ccc2-c2noc(=O)[nH]2)cc1 [Example 121, 3-(4′-((2-butyl-4-oxo-1,3-diazaspiro[4.4]non-1-en-3-yl)methyl)-5-(3,3-difluoropiperidin-1-yl)-[1,1′-biphenyl]-2-yl)-1,2,4-oxadiazol-5(4H)-one] | 302 | 47.4 | 7.2 | 368 | 98.0 | 431 |
| CCCCC1=NC2(CCCC2)C(=O)N1Cc1ccc(-c2cc(-c3ccsn3)ccc2-c2nn[nH]n2)cc1 [Example 123, 2-butyl-3-((5′-(isothiazol-3-yl)-2′-(2H-tetrazol-5-yl)-[1,1′-biphenyl]-4-yl)methyl)-1,3-diazaspiro[4.4]non-1-en-4-one] | 9.7 | 4.9 | – | > 100000 | 20.6 | 65.3 |
| CCCCC1=NC2(CCCC2)C(=O)N1Cc1ccc(-c2cc(-c3ccc(C(=O)NC)cc3)ccc2-c2nn[nH]n2)cc1 [Example 124] | 64.9 | 28.1 | – | > 100000 | 32.6 | 138 |
| CCCCC1=NC2(CCCC2)C(=O)N1Cc1ccc(-c2cc(-c3cccnc3)ccc2-c2nn[nH]n2)cc1 [Example 125] | 45.3 | 16.6 | – | > 100000 | 15.1 | 300 |
| CCCCC1=NC2(CCCC2)C(=O)N1Cc1ccc(-c2cc(-c3ccc(CO)cc3)ccc2-c2nn[nH]n2)cc1 [Example 126] | 5.3 | 17.3 | – | > 100000 | 65.1 | 47.1 |
| CCCCC1=NC2(CCCC2)C(=O)N1Cc1ccc(-c2cc(-c3ccccc3CO)ccc2-c2nn[nH]n2)cc1 [Example 128] | 25.7 | 14.5 | – | > 100000 | 11.0 | 133 |
| CCCCC1=NC2(CCCC2)C(=O)N1Cc1ccc(-c2cc(-c3ccsc3)ccc2-c2nn[nH]n2)cc1 [Example 130] | 21.9 | 31.2 | 5.9 | 108 | 80.0 | 26.1 |
| CCCCC1=NC2(CCCC2)C(=O)N1Cc1ccc(-c2cc(-c3cccs3)ccc2-c2nn[nH]n2)cc1 [Example 131] | 13.7 | 19.1 | – | > 100000 | 42.5 | 49 |
| CCCCC1=NC2(CCCC2)C(=O)N1Cc1ccc(-c2cc(-c3ccc(OC(F)(F)F)cc3)ccc2-c2nn[nH]n2)cc1 [Example 134] | 73.5 | 40.3 | 4.0 | 102 | 77.0 | 158 |
| CCCCC1=NC2(CCCC2)C(=O)N1Cc1ccc(-c2cc(-c3cccc(F)c3F)ccc2-c2nn[nH]n2)cc1 [Example 135] | 13.7 | 38.6 | – | > 100000 | 94.8 | 28.7 |
| CCCCC1=NC2(CCCC2)C(=O)N1Cc1ccc(-c2cc(-c3ccc(OC(F)F)cn3)ccc2-c2nn[nH]n2)cc1 [Example 136] | 4.9 | 43.2 | 18.1 | 14.4 | 94.2 | 9.9 |
| CCCCC1=NC2(CCCC2)C(=O)N1Cc1ccc(-c2cc(-c3cscn3)ccc2-c2nn[nH]n2)cc1 [Example 137] | > 100000 | – | – | > 100000 | 12.2 | 35.3 |
| CCCCC1=NC2(CCCC2)C(=O)N1Cc1ccc(-c2cc(-c3cccc(C(F)(F)F)n3)ccc2-c2nn[nH]n2)cc1 [Example 142] | 27.5 | 22.7 | 4.8 | 140 | 82.9 | 59.2 |
| CCCCC1=NC2(CCCC2)C(=O)N1Cc1ccc(-c2cc(-c3ccccc3)ccc2-c2noc(=O)[nH]2)cc1 [Example 143, 3-(4″-((2-butyl-4-oxo-1,3-diazaspiro[4.4]non-1-en-3-yl)methyl)-[1,1′:3′,1″-terphenyl]-4′-yl)-1,2,4-oxadiazol-5(4H)-one] | 8.4 | 47.4 | 5.2 | 18.3 | 94.6 | 8.2 |
| CCCCC1=NC2(CCCC2)C(=O)N1Cc1ccc(-c2cc(-c3cccc(F)c3F)ccc2-c2noc(=O)[nH]2)cc1 [Example 144, 3-(4″-((2-butyl-4-oxo-1,3-diazaspiro[4.4]non-1-en-3-yl)methyl)-2,3-difluoro-[1,1′:3′,1″-terphenyl]-4′-yl)-1,2,4-oxadiazol-5(4H)-one] | 12.3 | 33.3 | – | > 100000 | 104.0 | 26.8 |
| CCCCC1=NC2(CCCC2)C(=O)N1Cc1ccc(-c2cc(-c3ccccc3)ccc2C(=O)O)cc1 [Example 145, 4″-((2-butyl-4-oxo-1,3-diazaspiro[4.4]non-1-en-3-yl)methyl)-[1,1′:3′,1″-terphenyl]-4′-carboxylic acid] | 27.3 | 36.3 | 3.1 | 57.1 | 81.5 | 64.4 |
